From article PMC12040169 (PLOS Biology, 2025) come the findings set out here.

The nature of the data set: in vitro. The settings on record: human, hela cells, % viability.

Regarding `NC(=O)C1(N2CCCCC2)CCN(CC(=O)Nc2ccc(Oc3ccccc3)cc2)CC1` [CBK265774], the viability (commonly a read-out of living cells in per cent, often relative to untreated cells) at 28.5 h, 10 µM turned out to be 107%.
For the molecule `Clc1ccc(-c2c[nH]c([C@@H]3COCCN3Cc3csnn3)n2)cc1` [CBK289309], the viability at 28.5 h, 10 µM came to 87.1%.
`CCCN1CCC(CNC(=O)c2cc(C3CCCCC3)no2)CC1` [CBK283297]: the viability at 28.5 h, 10 µM stood at 98.2%.
On to `CCCC/C=C/c1cc(NCCc2ccccn2)n2nccc2n1` [CBK037155], for which the viability at 28.5 h, 10 µM is 96.5%.
For the molecule `COC(=O)CN(c1ccc(Cl)cc1Cl)S(C)(=O)=O` [CBK267654], the viability at 28.5 h, 10 µM was 105%.
On to `O=C(NCc1ccccc1)C1CCN(C(=O)Cc2c(F)cccc2Cl)CC1` [CBK297919], for which the viability at 28.5 h, 10 µM was found to be 96.6%.
Regarding `CN1CCN(C)C(COc2cc(C(F)(F)F)ccn2)C1` (stereo not drawn) [CBK113460], the viability at 28.5 h, 10 µM is 90.7%.
Consider `CCN(CC)C(=O)CN1CCC(Oc2cncc(OCc3cccnc3)n2)C1` (stereo not drawn) [CBK084461], for which the viability at 28.5 h, 10 µM was found to be 92.4%.
For `O=c1c(-c2nc3ccccc3s2)coc2c(CN3CCCCC3)c(O)ccc12` [CBK262161], the viability at 28.5 h, 10 µM was 106%.
In the case of `O=C(c1csc(-c2ccncc2)n1)N1CCN(c2ccccc2)CC1` [CBK288590], the viability at 28.5 h, 10 µM stood at 110%.
Regarding `O=C(O)CC(Cc1ccccc1)c1ccc(Cl)cc1` (stereo not drawn) [CBK270231], the viability at 28.5 h, 10 µM worked out at 89.6%.
For the molecule `Cc1nc(C)n(CC2CCCN(Cc3ccc(C#N)cc3)C2)n1` (stereo not drawn) [CBK305082], the viability at 28.5 h, 10 µM was 83.1%.
For `Cc1cccc(Nc2ccc(C3CCCCN3Cc3ccc4nccnc4c3)cn2)n1` (stereo not drawn) [CBK285536], the viability at 28.5 h, 10 µM was found to be 76.2%.
On to `CNC(c1ccncc1)C(NC)c1ccncc1` (stereo not drawn) [CBK015546], for which the viability at 28.5 h, 10 µM came out at 95.9%.
Turning to `Cc1nnc(NCCO)c2ccccc12` [CBK261448], the viability at 28.5 h, 10 µM is 112%.
Take `C[C@H]1[C@@H]2[C@@H](O)C([C@H](C)C(=O)N3CCCC3)CC[C@@]2(C)CC[C@@H]1NC(=O)c1ccncc1` (stereo partly drawn) [CBK289450]: the viability at 28.5 h, 10 µM worked out at 94.8%.
As to `CC(C)C(=O)NCCn1nc(-c2ccccc2F)cc1CN(C)C` [CBK281693], the viability at 28.5 h, 10 µM is 91.4%.
Take `CN(Cc1ccc(-c2ccc(S(C)(=O)=O)cc2)nc1)C1CCN(C(=O)CC2CCCCC2)CC1` [CBK164105T]: the viability at 28.5 h, 10 µM came out at 92.6%.
Turning to `O=C(CC1CCCCC1)N1CCC2(CCCNC2)C1` (stereo not drawn) [CBK137154C], the viability at 28.5 h, 10 µM stood at 91.5%.
For `CNCC1CCCN(C(=O)c2ccc(Oc3cccnc3)cc2)C1` (stereo not drawn) [CBK304479] the value was 83.2%.
Take `O=C(Nc1ccncc1)c1cccn(Cc2ccccc2F)c1=O` [CBK287738]: the viability at 28.5 h, 10 µM turned out to be 111%.
In the case of `NC(=O)CO[C@@H]1CO[C@H]2[C@@H]1OC[C@@H]2NCc1ccccc1` [CBK289479], the viability at 28.5 h, 10 µM turned out to be 112%.
As to `O=C(C1COc2ccccc2O1)N1CCN(c2ncccn2)CC1` (stereo not drawn) [CBK144502], the viability at 28.5 h, 10 µM is 116%.
Turning to `Cc1c(S(=O)(=O)Nc2ccc3cn[nH]c3c2)cnn1-c1ccccc1` [CBK067149], the viability at 28.5 h, 10 µM turned out to be 92.4%.
In the case of `O=C(Oc1cccc2cccnc12)c1cc(S(=O)(=O)N2CCOCC2)ccc1Cl` [CBK263210], the viability at 28.5 h, 10 µM was determined as 91.3%.
Take `O=C1COc2ccccc2C/C=C/CC2(CCN(C(=O)Cn3cccn3)CC2)C(=O)NCCN1` [CBK292003]: the viability at 28.5 h, 10 µM worked out at 117%.
With `COc1ccc(S(=O)(=O)Nc2cc(N3CCCC3)c3occc3c2)cc1OC` [CBK061975], the viability at 28.5 h, 10 µM was found to be 97.2%.
For the molecule `Cc1c(Cl)cccc1NC(=O)c1cnc2scc(C)n2c1=O` [CBK287463], the viability at 28.5 h, 10 µM was determined as 117%.
Under `COc1ccc(CN2CC=C(c3ccc(F)cc3)CC2)cc1OCc1ccccc1` [CBK261853] stands 96.1%; under `Cc1ccc(S(=O)(=O)N2CCC(n3c(=O)[nH]c4ccccc43)CC2)cc1Cl` [CBK149691], 90.8%.
In the case of `Cc1sc2nc(N)c(C(=O)NC(C)C)cc2c1C` [CBK269259], the viability at 28.5 h, 10 µM came to 115%.
Take `C=CCNC(=O)N1CC[C@H]2CC(=O)N(Cc3ccc(OC)cc3)CC[C@H]2C1` [CBK288790]: the viability at 28.5 h, 10 µM was found to be 86.9%.
With `Cc1c(C(=O)NCCOc2ccc(-c3ccccc3)cc2)sc2nc[nH]c(=O)c12` [CBK285805], the viability at 28.5 h, 10 µM stood at 92.2%.
Take `O=C1CC[C@@H](NCc2ccccc2O)[C@H](c2cc(F)cc(F)c2)N1` [CBK283126]: the viability at 28.5 h, 10 µM is 107%.
Consider `COc1ccc(-c2cncc(C3CN(Cc4ccc(C)cc4OC)CCO3)n2)cc1` (stereo not drawn) [CBK286100], for which the viability at 28.5 h, 10 µM stood at 91.8%.
For `Cc1nc(NS(=O)(=O)c2c(C)noc2C)sc1C(=O)O` [CBK045562], the viability at 28.5 h, 10 µM was found to be 85.7%.
For `CCC(NS(=O)(=O)c1cc(-n2cccn2)ccc1OC)C1CC(O)C1` (stereo not drawn) [CBK307103], the viability at 28.5 h, 10 µM turned out to be 106%.
In the case of `Cc1cc(NC(=O)c2cccs2)nc2c1c(=O)oc1ccccc12` [CBK287439], the viability at 28.5 h, 10 µM stood at 91.8%.
In the case of `Cc1nn(CC(=O)N(C)Cc2cnccn2)c(=O)c2ccccc12` [CBK304356], the viability at 28.5 h, 10 µM stood at 97.6%.
As to `CC(C(=O)Nc1cccc(N2CCNCC2)c1)c1ccccc1` (stereo not drawn) [CBK004770T], the viability at 28.5 h, 10 µM turned out to be 95.6%.
Consider `COc1nc2ccn(CCNC(=O)C(C)C)c(=O)c2cc1C#N` [CBK307015], for which the viability at 28.5 h, 10 µM was determined as 95.8%.
For `O=[N+]([O-])c1ccc(N2CCN(C/C=C/c3ccccc3[N+](=O)[O-])CC2)cc1` [CBK261895] the value was 95%.
For the molecule `Cc1nc(C2CCCC2)cc([C@H]2CN3CC[C@H]2C[C@@H]3CNC(=O)c2ccco2)n1` [CBK289120], the viability at 28.5 h, 10 µM turned out to be 109%.
For `Cc1c(C(=O)N2CCCCC2C(N)=O)nnn1-c1cccc(Cl)c1` (stereo not drawn) [CBK305490] the value was 106%; for `CC(C)CCCC(=O)n1c(=O)n(CCc2c[nH]c3ccccc23)c2ccccc21` [CBK106513], 89.2%; for `Cc1nnc2n1CCN(C(=O)CC1OCCc3sccc31)C2` (stereo not drawn) [CBK304956], 94%.
Take `COC(=O)C1=COC(C)C2CN3CCC4(NC(=O)c5c4ccc(OC)c5OC)C3CC12` (stereo not drawn) [CBK003303]: the viability at 28.5 h, 10 µM amounted to 107%.
Regarding `COc1ccc(-c2n[nH]cc2/C=N/NC(=O)c2cc(Br)ccc2O)c(OC)c1` [CBK262067], the viability at 28.5 h, 10 µM is 85.9%.
Under `O=C1c2ccccc2C(=O)N1CCCc1nn2c(-c3cccnc3)nnc2s1` [CBK270140] stands 80.2%; under `Cn1c2ccccc2c2cc(/C=C(/NC(=O)c3ccccc3)C(=O)Nc3cccc(O)c3)ccc21` [CBK261449], 111%.
Regarding `Cc1ccc(C2=NN(C(=O)CNc3cc(F)cc(F)c3)C(c3ccco3)C2)cc1` (stereo not drawn) [CBK297922], the viability at 28.5 h, 10 µM stood at 94.2%.
For the molecule `COc1c(Cl)cc(Cl)cc1CNCc1cccnc1` [CBK270142C], the viability at 28.5 h, 10 µM was 94.2%.
`Cc1ccc(-n2ncc3c(=O)n(CC(=O)NC4CCCCC4)cnc32)cc1` [CBK287536]: the viability at 28.5 h, 10 µM came out at 78.1%.
In the case of `CCOc1ccc(S(=O)(=O)NC(C)C(=O)O)cc1C` (stereo not drawn) [CBK270178], the viability at 28.5 h, 10 µM was determined as 114%.
Under `COc1ccc(C(NC(=O)C2CCN(CCOc3ccc(Br)cc3)CC2)c2ccco2)cc1` (stereo not drawn) [CBK148311] stands 95.8%.
Take `CC(=O)c1ccc(-c2nccnc2NCC(O)COc2ccccc2)s1` (stereo not drawn) [CBK036976]: the viability at 28.5 h, 10 µM is 107%.
Take `CCC(COC)NS(=O)(=O)c1ccc(C(C)C)cc1` (stereo not drawn) [CBK044587]: the viability at 28.5 h, 10 µM is 108%.
